The numbers were not newly measured in patent publication US12178826B2, “Formulations for the delivery of autophagy stimulating trehalose” (priority 2017, dated 2024), which cites them from elsewhere.

The conditions of data set [1]: after inhalation; general statement, no test described.
For data set [2], the system named is mutant SOD1 transgenic mice. The note with it: Trehalose administration.

With `OC[C@H]1O[C@H](O[C@H]2O[C@H](CO)[C@@H](O)[C@H](O)[C@H]2O)[C@H](O)[C@@H](O)[C@@H]1O` [Trehalose, (2R,3S,4S,5R,6R)-2-(Hydroxymethyl)-6-[(2R,3R,4S,5S,6R)-3,4,5-trihydroxy-6-(hydroxymethyl)oxan-2-yl]oxyoxane-3,4,5-triol], in the data set on NSC34 motoneuron cells, the “mutant SOD1 degradation by autophagy” value is recorded as “led to mutant SOD1 degradation by autophagy”. Besides, the “time to absorption from the lungs into the bloodstream” value in data set [1] is at most 2 h. Further, in data set [2], the “accumulation of SOD1 aggregates” value is “decreased accumulation of SOD1 aggregates”, the life span entry is “significantly prolonged life span” and the motoneuron survival result is on record as “enhanced motoneuron survival”.
